# Results as given in US6660757B2, “Use of riluzole in the treating acoustic traumas” (Aventis Pharmaceuticals Inc., priority 1998, dated 2003).
# Columns and labels:
# [1] = system: compound action potential (CAP) of the auditory nerve; assay: acute perifusion of the cochleae: effect of increasing doses on cochlear potentials (CAP); type: in vivo, guinea pigs
# Description: The effect of riluzole in increasing doses was studied according to the technique of acute perifusion of the cochleae:
# 10 tricolor guinea pigs weighing 200 to 400 g are anesthetized by intraperitoneal injection of urethane (1.4 g/kg) and then trachetomized and artificially ventilated. The external auditory canals are incised for the putting in place of ear bars in a restraining apparatus. During the entire duration of the experiment, the electrocardiogram is monitored and the central temperature regulated by means of a heating cover at 38.5±1° C. The experiments are carried out in a soundproofed, anechoic and faradized chamber. Access to the cochlea is obtained via a ventral approach. After opening of the tympanic bulla, 3 holes 0.2 mm in diameter are manually cut in the basal turn of the cochlea: the first in the tympanic ramp to receive an infusion pipette, the second in the vestibular ramp to allow the outflow of the infused solutions out of the cochlea and the third also in the vestibular ramp to receive a recording electrode.
# The cochlear potentials recorded in the vestibular ramp are stored and then numerically filtered to dissociate the compound action potential (CAP), a control for the activity of the auditory nerve and the receptor potentials obtained from the ciliated cells, namely the microphonic potential (MP) and the summation potential (SP). A low-pass filter of 2.5 kHz is used to extract the CAP whose amplitude is measured between N1 (1st negative wave) and P1 (1st positive wave) as well as the SP measured between 0 and 5 ms. A band-pass filter around 8 kHz (acoustic stimulation frequency) is used to extract the MP (6-10 kHz, filter slope: 48 db/octave).
# After introducing the pipette (about 0.1 mm in diameter at the tip) into the tympanic ramp with the aid of a micromanipulator, leaktightness being provided by means of a glue ball placed near the tip, artificial perilymph is infused at the rate of 2.5 μl/min. A second infusion of artificial perilymph containing 0.1% dimethyl sulfoxide is carried out. […] These cochlear potentials are recorded immediately after each infusion. The duration of the infusions is 10 minutes.
# The IC50 is observed for a dose of 300 μM (FIG. 2). In all the animals, a complete disappearance of the CAP is obtained for a dose of 500 μM.
# [2] = system: acoustic trauma; assay: protective effect on acoustic trauma (sound overstimulation 6 kHz, 130 dB SPL, 15 minutes); type: in vivo, guinea pigs; conditions: 500 μM in perilymph
# Description: The protective effect on acoustic trauma was tested on 10 animals for which a preliminary infusion of artificial perilymph is carried out for 10 minutes. After evaluation of the audiometric thresholds, a second 35 minute infusion either of artificial perilymph alone (5 animals: control group) or of perilymph containing 500 μM riluzole (5 animals) is carried out. Ten minutes after the start of the second infusion, a sound overstimulation (6 kHz, 130 dB SPL) is applied for 15 minutes. Finally, a third infusion of artificial perilymph allows rinsing of the cochlea. The audiometric thresholds are then recorded. The auditory loss for each frequency induced by sound exposure is defined as the difference between the audiometric thresholds recorded before and after the sound over-exposure.
# [3] = cumulative increasing doses 50 to 500 μM, intracochlear infusion
smiles,measurement,setting,value
"Nc1nc2ccc(OC(F)(F)F)cc2s1 [riluzole, 2-amino-6-trifluoromethoxy-benzothiazole]",IC50,"[1]; Cavia porcellus, 10 min, intracochlear infusion of cumulative increasing doses 50 to 500 μM in artificial perilymph with 0.1% dimethyl sulfoxide, 10 minutes each, read-out: IC50 for reduction of the amplitude of the compound action potential (CAP)",300 µM
same,effect on CAP of the auditory nerve,[1]; [3],reduction in the compound action potential (CAP) of the auditory nerve dependant on the dose
same,effect on latency N1 of the CAP,[1]; [3],increase in the latency N1
same,dose for complete disappearance of the CAP,"[1]; intracochlear infusion, in all the animals",500 µM
same,auditory losses after sound overstimulation versus control group,"[2]; 35 minute infusion, frequencies of between 8 and 16 kHz","control group exhibits, for frequencies of between 8 and 16 kHz, much higher auditory losses"
same,histological study of the cochleae by electron microscopy: innervation,[2]; after sound overstimulation,virtually normal innervation
